MIC data for ten molecules are collected here from US4323567A, “Arylmalonamido-1-oxadethiacephalosporins” (priority 1976, dated 1982).

Molecules are shown by their SMILES.

Holding throughout (test): Minimal inhibitory concentration, nutrient agar plate
Experiment [1] has as its system Serratia marsescens 13880. In kind it is cell-based. The note with it: Serratia, 13880; as sodium salt, inoculum size 10^8, pH 7.0; read-out: Minimal inhibitory concentration.
The test system of a further experiment is E. coli 377. In kind it is cell-based, Escherichia coli. The note with it: Escherichia coli, 377; as sodium salt, inoculum size 10^8, pH 7.0; read-out: Minimal inhibitory concentration.
The subject of the next experiment is E. coli 73. In kind it is cell-based, Escherichia coli. The note with it: Escherichia coli, 73; as sodium salt, inoculum size 10^8, pH 7.0; read-out: Minimal inhibitory concentration.
Another experiment has as its system Escherichia coli H. In kind it is cell-based. As to conditions: as sodium salt, inoculum size 10^8, pH 7.0, read-out: Minimal inhibitory concentration.
For a further experiment, the system named is Ps. aeruginosa 25619. In kind it is cell-based, Pseudomonas aeruginosa. As to conditions: Pseudomonas aeruginosa, 25619; as sodium salt, inoculum size 10^8, pH 7.0; read-out: Minimal inhibitory concentration.
A further experiment has as its system Ps. aeruginosa 24. In kind it is cell-based, Pseudomonas aeruginosa. The note with it: Pseudomonas aeruginosa, 24; as sodium salt, inoculum size 10^8, pH 7.0; read-out: Minimal inhibitory concentration.
Another experiment deals with Klebsiella sp. 363. In kind it is cell-based. As to conditions: SP.363, as sodium salt, inoculum size 10^8, pH 7.0, read-out: Minimal inhibitory concentration.
In a further experiment the test system is P. vulgaris No. 3. In kind it is cell-based. As to conditions: Proteus vulgaris, NO.3; as sodium salt, inoculum size 10^8, pH 7.0; read-out: Minimal inhibitory concentration.
The next experiment deals with Proteus mirabilis PR-4. In kind it is cell-based. As to conditions: PR4, as sodium salt, inoculum size 10^8, pH 7.0, read-out: Minimal inhibitory concentration.
Experiment [2] concerns Pseudomonas aeruginosa Denken. In kind it is cell-based. The note with it: as sodium salt, inoculum size 10^8, pH 7.0, read-out: Minimal inhibitory concentration.
In a further experiment the test system is Enterobacter cloacae 233. In kind it is cell-based. As to conditions: Enterobacter cloacae, 233; as sodium salt, inoculum size 10^8, pH 7.0; read-out: Minimal inhibitory concentration.
A further experiment concerns Klebsiella pneumoniae. In kind it is cell-based. The note with it: as sodium salt, inoculum size 10^8, pH 7.0, read-out: Minimal inhibitory concentration.
Another experiment concerns E. coli JC-2. In kind it is cell-based. The note with it: Escherichia coli, JC2; as sodium salt, inoculum size 10^8, pH 7.0; read-out: Minimal inhibitory concentration.
The test system of another experiment is P. vulgaris CN-329. In kind it is cell-based. The note with it: Proteus vulgaris, CN329; as sodium salt, inoculum size 10^8, pH 7.0; read-out: Minimal inhibitory concentration.
A further experiment has as its system P. morganii No. 9. In kind it is cell-based, Proteus morganii. As to conditions: Morganella morganii, NO.9; as sodium salt, inoculum size 10^8, pH 7.0; read-out: Minimal inhibitory concentration.

With `CC(=O)OCC1=C(C(=O)O)N2C(=O)[C@@H](NC(=O)Cc3cccs3)[C@H]2SC1` [Cefalotin, reference compound], the MIC is above 100 µg/mL in experiment [1]; above 100 µg/mL with E. coli 377; above 100 µg/mL with E. coli 73; 3.2 µg/mL in the experiment with Escherichia coli H; above 100 µg/mL in the experiment with Ps. aeruginosa 25619; above 100 µg/mL with Ps. aeruginosa 24. Also, the MIC was above 100 µg/mL in the experiment with Klebsiella sp. 363; above 100 µg/mL in the experiment with P. vulgaris No. 3; 3.2 µg/mL in the experiment on Proteus mirabilis PR-4; above 100 µg/mL in [2]; above 100 µg/mL in the experiment with Enterobacter cloacae 233; 1.6 µg/mL in the experiment on Klebsiella pneumoniae. The MIC was 12.5 µg/mL in the experiment on E. coli JC-2, above 100 µg/mL in the experiment on P. vulgaris CN-329 and above 100 µg/mL in the experiment on P. morganii No. 9.

Consider `Cc1nnc(SCC2=C(C(=O)O)N3C(=O)[C@@H](NC(=O)Cn4cnnn4)[C@H]3SC2)s1` [Cefazolin, reference compound], for which the MIC was above 100 µg/mL in experiment [1]; 100 µg/mL with E. coli 377; above 100 µg/mL in the experiment on E. coli 73; 1.6 µg/mL in the experiment on Escherichia coli H; above 100 µg/mL in the experiment on Ps. aeruginosa 25619; above 100 µg/mL in the experiment with Ps. aeruginosa 24. In addition, the MIC in the experiment on Klebsiella sp. 363 is above 100 µg/mL; in the experiment on P. vulgaris No. 3 it was above 100 µg/mL; with Proteus mirabilis PR-4, 6.2 µg/mL; in experiment [2], above 100 µg/mL; with Enterobacter cloacae 233, above 100 µg/mL; with Klebsiella pneumoniae it was 3.2 µg/mL. Further, the MIC is 3.2 µg/mL in the experiment with E. coli JC-2, above 100 µg/mL with P. vulgaris CN-329 and above 100 µg/mL in the experiment with P. morganii No. 9.

For `Cn1nnnc1SCC1=C(C(=O)O)N2C(=O)[C@@H](NC(=O)C(C(=O)O)c3ccc(O)cc3)[C@H]2OC1` (stereo partly drawn) [Example III-6, 7β-(α-p-hydroxyphenyl-α-carboxyacetamido)-3-(1-methyltetrazol-5-yl)thiomethyl-1-oxadethia-3-cephem-4-carboxylic acid], the MIC in [1] is 0.78 µg/mL; with E. coli 377 it was 0.39 µg/mL; with E. coli 73, above 100 µg/mL; in the experiment with Escherichia coli H it was 0.2 µg/mL; with Ps. aeruginosa 25619 it was 6.25 µg/mL; in the experiment with Ps. aeruginosa 24, above 100 µg/mL. In addition, the MIC in the experiment with Klebsiella sp. 363 is above 100 µg/mL; in the experiment on P. vulgaris No. 3 it was above 100 µg/mL; in the experiment with Proteus mirabilis PR-4, 0.78 µg/mL; in experiment [2], above 100 µg/mL; in the experiment on Enterobacter cloacae 233, 0.78 µg/mL; in the experiment on Klebsiella pneumoniae, 0.78 µg/mL. The results for the MIC in the experiment with E. coli JC-2, in the experiment with P. vulgaris CN-329 and with P. morganii No. 9 were 0.39 µg/mL, above 100 µg/mL and 0.78 µg/mL, respectively.

As to `O=C(O)Cn1nnnc1SCC1=C(C(=O)O)N2C(=O)[C@@H](NC(=O)C(C(=O)O)c3ccccc3)[C@H]2OC1` (stereo partly drawn) [Example III-10, 7β-(α-carboxy-α-phenylacetamido)-3-(1-carboxymethyltetrazol-5-yl)thiomethyl-1-oxadethia-3-cephem-4-carboxylic acid], the MIC in experiment [1] was 50 µg/mL; with E. coli 377, 0.25 µg/mL; in the experiment with E. coli 73, above 100 µg/mL; in the experiment on Escherichia coli H, 0.78 µg/mL; in the experiment on Ps. aeruginosa 25619 it was 100 µg/mL; in the experiment on Ps. aeruginosa 24, above 100 µg/mL. For the same molecule, the MIC in the experiment on Klebsiella sp. 363 was above 100 µg/mL; with Proteus mirabilis PR-4 it was 0.78 µg/mL; in experiment [2], above 100 µg/mL; in the experiment with Enterobacter cloacae 233 it was 12.5 µg/mL; with Klebsiella pneumoniae, 3.13 µg/mL; with E. coli JC-2, 3.13 µg/mL. Further, the MIC with P. vulgaris CN-329 was above 100 µg/mL; in the experiment with P. morganii No. 9, 0.78 µg/mL.

For the molecule `Cc1nnc(SCC2=C(C(=O)O)N3C(=O)[C@@H](NC(=O)C(C(=O)O)c4ccccc4)[C@H]3OC2)s1` (stereo partly drawn) [Example III-12, 7β-(α-phenyl-α-carboxyacetamido)-3-(2-methyl-1,3,4-thiadiazol-5-yl)thiomethyl-1-oxadethia-3-cephem-4-carboxylic acid], the MIC in experiment [1] was 1.56 µg/mL; in the experiment on E. coli 377, 0.78 µg/mL; in the experiment on E. coli 73, above 100 µg/mL; in the experiment with Escherichia coli H, 0.2 µg/mL; in the experiment with Ps. aeruginosa 25619 it was 3.13 µg/mL; with Ps. aeruginosa 24, above 100 µg/mL. For the same molecule, the MIC is above 100 µg/mL in the experiment on Klebsiella sp. 363; 0.39 µg/mL in the experiment on Proteus mirabilis PR-4; above 100 µg/mL in experiment [2]; 1.56 µg/mL with Enterobacter cloacae 233; 0.78 µg/mL in the experiment on Klebsiella pneumoniae; 0.39 µg/mL with E. coli JC-2. Further, the MIC in the experiment with P. vulgaris CN-329 is 100 µg/mL; in the experiment with P. morganii No. 9, 0.39 µg/mL.

Regarding `CO[C@@]1(NC(=O)C(C(=O)O)c2ccc(OC(N)=O)cc2)C(=O)N2C(C(=O)O)=C(CSc3nnnn3C)CO[C@@H]21` (stereo partly drawn) [Example III-25, 7β-(α-p-carbamoyloxyphenyl-α-carboxyacetamido)-7α-methoxy-3-(1-methyltetrazol-5-yl)thiomethyl-1-oxadethia-3-cephem-4-carboxylic acid], the MIC is 1.56 µg/mL in experiment [1]; 0.78 µg/mL in the experiment on E. coli 377; 1.56 µg/mL with E. coli 73; 0.1 µg/mL with Escherichia coli H; 25 µg/mL in the experiment on Ps. aeruginosa 25619; 100 µg/mL in the experiment with Ps. aeruginosa 24. The MIC is 0.39 µg/mL with Klebsiella sp. 363; 0.39 µg/mL in the experiment with P. vulgaris No. 3; 0.2 µg/mL with Proteus mirabilis PR-4; above 100 µg/mL in [2]; 0.78 µg/mL with Enterobacter cloacae 233; 0.39 µg/mL with Klebsiella pneumoniae. Further, the MIC in the experiment on E. coli JC-2 worked out at 0.39 µg/mL; with P. vulgaris CN-329 it was 0.2 µg/mL; in the experiment with P. morganii No. 9, 0.2 µg/mL.

`CO[C@@]1(NC(=O)C(C(=O)O)c2ccccc2)C(=O)N2C(C(=O)O)=C(CSc3nnnn3C)CO[C@@H]21` (stereo partly drawn) [III-13, 7β-(α-carboxy-α-phenylacetamido)-7α-methoxy-3-(1-methyltetrazol-5-yl)thiomethyl-1-oxadethia-3-cephem-4-carboxylic acid]: the MIC stood at 0.39 µg/mL in experiment [1]; 0.2 µg/mL in the experiment with E. coli 377; 0.39 µg/mL with E. coli 73; 0.025 µg/mL in the experiment with Escherichia coli H; 12.5 µg/mL in the experiment with Ps. aeruginosa 25619; 50 µg/mL with Ps. aeruginosa 24. Further, the MIC in the experiment with Klebsiella sp. 363 worked out at 0.05 µg/mL; in the experiment with P. vulgaris No. 3, 0.2 µg/mL; with Proteus mirabilis PR-4, 0.2 µg/mL; in [2], 100 µg/mL; in the experiment with Enterobacter cloacae 233, 0.2 µg/mL; in the experiment with Klebsiella pneumoniae it was 0.1 µg/mL. Also, the MIC with E. coli JC-2 came to 0.01 µg/mL; in the experiment with P. vulgaris CN-329, 0.1 µg/mL; in the experiment with P. morganii No. 9 it was 0.1 µg/mL.

For `CO[C@@]1(NC(=O)C(C(=O)O)c2ccc(OC(C)=O)cc2)C(=O)N2C(C(=O)O)=C(CSc3nnnn3C)CO[C@@H]21` (stereo partly drawn) [III-14, 7β-(α-carboxy-α-p-acetoxyphenylacetamido)-7α-methoxy-3-(1-methyltetrazol-5-yl)thiomethyl-1-oxadethia-3-cephem-4-carboxylic acid], the MIC was 1.56 µg/mL in the experiment with E. coli 377; 1.56 µg/mL in the experiment on E. coli 73; 0.2 µg/mL in the experiment with Escherichia coli H; 25 µg/mL in the experiment on Ps. aeruginosa 25619; 100 µg/mL with Ps. aeruginosa 24; 0.78 µg/mL in the experiment on Klebsiella sp. 363. Further, the MIC was 0.39 µg/mL in the experiment with P. vulgaris No. 3; 0.2 µg/mL in the experiment on Proteus mirabilis PR-4; above 100 µg/mL in [2]; 0.78 µg/mL with Enterobacter cloacae 233; 0.39 µg/mL with Klebsiella pneumoniae; 0.39 µg/mL in the experiment with E. coli JC-2. The MIC with P. vulgaris CN-329 was found to be 0.2 µg/mL; in the experiment with P. morganii No. 9, 0.39 µg/mL.

With `CO[C@@]1(NC(=O)C(C(=O)O)c2ccc(O)cc2)C(=O)N2C(C(=O)O)=C(CSc3nnnn3C)CO[C@@H]21` (stereo partly drawn) [III-15, 7β-(α-carboxy-α-p-hydroxyphenylacetamido)-7α-methoxy-3-(1-methyltetrazol-5-yl)thiomethyl-1-oxadethia-3-cephem-4-carboxylic acid], the MIC was determined as 1.56 µg/mL in [1]; 0.39 µg/mL with E. coli 377; 0.78 µg/mL in the experiment with E. coli 73; 0.1 µg/mL in the experiment with Escherichia coli H; 6.25 µg/mL in the experiment with Ps. aeruginosa 25619; 50 µg/mL in the experiment with Ps. aeruginosa 24. The MIC in the experiment with Klebsiella sp. 363 was 0.1 µg/mL; in the experiment on P. vulgaris No. 3, 0.39 µg/mL; in the experiment with Proteus mirabilis PR-4, 0.39 µg/mL; in [2] it was 100 µg/mL; in the experiment on Klebsiella pneumoniae it was 0.2 µg/mL; in the experiment on E. coli JC-2, 0.02 µg/mL. Moreover, the MIC in the experiment with P. vulgaris CN-329 and with P. morganii No. 9 was 0.39 µg/mL throughout.

Regarding `CO[C@@]1(NC(=O)C(C(=O)O)c2cccs2)C(=O)N2C(C(=O)O)=C(CSc3nnnn3C)CO[C@@H]21` (stereo partly drawn) [III-23, 7β-[α-carboxy-α-(2-theinyl)acetamido]-7α-methoxy-3-(1-methyltetrazol-5-yl)thiomethyl-1-oxadethia-3-cephem-4-carboxylic acid], the MIC in experiment [1] is 0.39 µg/mL; in the experiment with E. coli 377, 0.39 µg/mL; in the experiment with E. coli 73, 0.2 µg/mL; in the experiment on Escherichia coli H, 0.025 µg/mL; in the experiment on Ps. aeruginosa 25619, 12.5 µg/mL; in the experiment with Ps. aeruginosa 24, 50 µg/mL. For the same molecule, the MIC was 0.1 µg/mL with Klebsiella sp. 363; 0.1 µg/mL in the experiment with Proteus mirabilis PR-4; 100 µg/mL in experiment [2]; 0.2 µg/mL in the experiment with Enterobacter cloacae 233; 0.05 µg/mL in the experiment with Klebsiella pneumoniae; 0.05 µg/mL with E. coli JC-2. In addition, the MIC with P. vulgaris CN-329 and in the experiment on P. morganii No. 9 was 0.1 µg/mL each time.
